Assay results: ChEMBL document CHEMBL1201862, “PubChem BioAssay data set” (2004)
The source made the active and inactive calls.

Tests used:
[1] = reduction of Shn3 3'UTR-driven luciferase in osteoblasts – cell-based, Clone20 osteoblasts, firefly luciferase, cherry-picked, dose response (AID 624132); format: functional;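 note: firefly luciferase luminescence from reporter carrying the Shn3 3'UTR in osteoblasts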
[2] = non-specific 3'UTR reporter inhibition in Clone20-Shn3RL – cell-based, Renilla luciferase, cherry-picked, counter-screen for Shn3 inhibitor project, dose response (AID 624133); format: functional
[3] = molecular target: T1, Voltage-gated N-type calcium channel alpha-1B subunit/Amyloid beta A4 precursor protein-binding family A member 1 (Homo sapiens, UniProt Q00975+Q02410); format: protein assay
[4] = molecular target: T1, Voltage-gated N-type calcium channel alpha-1B subunit/Amyloid beta A4 precursor protein-binding family A member 1; format: protein assay; remark: listed apart in the source
Beta-galactosidase [5] = molecular target: T2, Beta-galactosidase (Escherichia coli, UniProt Q8VNN2); assay: detection-enzyme interference by beta-gal modulators – biochemical, E. coli enzyme, set 3, artefact control for CCR6 antagonist project, dose response (AID 504712); format: functional
[6] = loss of viability in HepG2 cells – cell-based, CellTiter-Glo, cherry-picked, cytotoxicity control for Shn3 inhibitor project, dose response (AID 624134); format: functional
[7] = molecular target: T3, Kappa-type opioid receptor (Homo sapiens, UniProt P41145); format: functional
Beta-galactosidase [8] = molecular target: T2, Beta-galactosidase; format: functional
[9] = molecular target: T3, Kappa-type opioid receptor; format: functional; remark: listed apart in the source
Aminopeptidase N = molecular target: T4, Aminopeptidase N (Plasmodium falciparum FcB1/Columbia, UniProt O96935); assay: malaria alanyl aminopeptidase activity blockers – biochemical, fluorogenic H-Leu-NHMec substrate, 1536-well (AID 1445); parameters: species or system Plasmodium falciparum 3D7, 3D7
T4 sequence (O96935 whole entry): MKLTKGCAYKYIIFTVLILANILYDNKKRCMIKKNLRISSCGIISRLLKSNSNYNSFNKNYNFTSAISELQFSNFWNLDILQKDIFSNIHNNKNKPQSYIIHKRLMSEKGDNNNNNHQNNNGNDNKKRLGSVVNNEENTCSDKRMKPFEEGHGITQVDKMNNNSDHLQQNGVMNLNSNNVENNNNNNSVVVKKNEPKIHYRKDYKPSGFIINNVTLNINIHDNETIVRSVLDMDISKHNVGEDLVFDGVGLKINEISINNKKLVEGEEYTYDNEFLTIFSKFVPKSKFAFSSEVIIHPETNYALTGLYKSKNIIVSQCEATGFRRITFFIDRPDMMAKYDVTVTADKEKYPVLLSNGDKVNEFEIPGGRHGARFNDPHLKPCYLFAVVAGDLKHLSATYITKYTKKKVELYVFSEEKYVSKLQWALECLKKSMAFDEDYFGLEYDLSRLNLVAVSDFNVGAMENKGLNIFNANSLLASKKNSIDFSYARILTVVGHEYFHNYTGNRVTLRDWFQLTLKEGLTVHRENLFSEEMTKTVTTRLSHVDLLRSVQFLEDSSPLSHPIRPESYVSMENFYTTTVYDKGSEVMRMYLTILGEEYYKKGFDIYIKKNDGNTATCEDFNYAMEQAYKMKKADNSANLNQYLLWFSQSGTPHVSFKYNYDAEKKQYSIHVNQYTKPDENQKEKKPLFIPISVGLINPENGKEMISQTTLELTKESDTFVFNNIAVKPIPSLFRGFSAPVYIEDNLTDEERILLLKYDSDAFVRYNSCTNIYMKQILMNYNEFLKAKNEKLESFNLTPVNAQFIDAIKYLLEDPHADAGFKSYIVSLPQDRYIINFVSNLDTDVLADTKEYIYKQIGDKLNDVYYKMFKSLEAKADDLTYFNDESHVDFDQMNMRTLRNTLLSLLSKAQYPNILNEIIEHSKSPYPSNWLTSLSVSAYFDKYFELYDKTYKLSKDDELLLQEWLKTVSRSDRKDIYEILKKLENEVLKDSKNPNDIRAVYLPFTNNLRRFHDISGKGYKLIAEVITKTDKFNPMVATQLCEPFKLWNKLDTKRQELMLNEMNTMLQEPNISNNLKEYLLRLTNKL

Leucine aminopeptidase = molecular target: T5, Leucine aminopeptidase (Plasmodium falciparum 3D7, UniProt Q8IL11); assay: P. falciparum M17LAP inhibitors, primary screen, biochemical, fluorogenic H-Leu-NHMec substrate, 1536-well (AID 1619); format: functional
T5 sequence (Q8IL11 whole entry): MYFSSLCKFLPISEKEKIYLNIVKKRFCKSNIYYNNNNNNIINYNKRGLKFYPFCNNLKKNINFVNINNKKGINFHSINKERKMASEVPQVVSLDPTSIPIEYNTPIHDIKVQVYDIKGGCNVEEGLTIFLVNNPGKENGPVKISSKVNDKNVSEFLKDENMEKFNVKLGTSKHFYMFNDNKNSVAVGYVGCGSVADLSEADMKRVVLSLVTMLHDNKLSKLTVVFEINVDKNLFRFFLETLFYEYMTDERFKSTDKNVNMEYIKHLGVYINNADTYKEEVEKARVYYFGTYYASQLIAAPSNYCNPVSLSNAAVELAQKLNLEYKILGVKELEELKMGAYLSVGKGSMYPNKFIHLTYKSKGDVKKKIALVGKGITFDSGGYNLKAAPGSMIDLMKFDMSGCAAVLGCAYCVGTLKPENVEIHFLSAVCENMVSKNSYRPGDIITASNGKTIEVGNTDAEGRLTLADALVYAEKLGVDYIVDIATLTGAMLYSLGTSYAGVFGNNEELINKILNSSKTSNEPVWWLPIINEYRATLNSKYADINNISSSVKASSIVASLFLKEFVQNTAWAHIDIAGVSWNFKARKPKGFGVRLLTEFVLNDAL

[10] = molecular target: Potassium voltage-gated channel subfamily KQT member 2 (Rattus norvegicus, UniProt O88943, W236L); assay: potentiation of rat KCNQ2 current – cell-based, automated electrophysiology, mechanism study for KCNQ2 potentiator project, dose response (AID 2603); format: functional
Cytochrome P450 2D6 = Cytochrome P450 2D6 (Homo sapiens, UniProt P10635);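 note: CYP2D6 member of a cytochrome P450 panel assay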
BJ [11] = assay: BJ-TERT-LT-ST fibroblast viability loss – cell-based, RAS-independent, luminescence, dose response (AID 1935); format: functional; settings: Homo sapiens;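 note: BJ fibroblasts immortalized with TERT plus LT and ST oncogenes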
[12] = DRD fibroblast viability loss – cell-based, non-viral oncogenic, luminescence, dose response (AID 1934); format: functional; settings: Homo sapiens
[13] = blockers of HIV-1 envelope-mediated cell-cell fusion – cherry-pick, dose response (AID 652057); format: functional, cell-based
BJ [14] = assay: growth inhibition of engineered Ras-driven BJ cells – cell-based, alamar blue fluorescence, cherrypicked samples, dose response (AID 2631); format: functional; settings: Homo sapiens;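 note: confirmatory dose-response assay in RAS-dependent BJ fibroblasts engineered with TERT, LT and ST, with cytotoxicity read by fluorescence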
[15] = viability loss in CEM21 cells – cell-based, CellTiter-Glo luminescence, cherry-picked, cytotoxicity control for viral fusion inhibitor project, dose response (AID 652042); format: functional;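 note: potency for signal decrease meaning cytotoxicity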
[16] = molecular target: T6, Replicative DNA helicase DnaB (Mycobacterium tuberculosis, UniProt P9WMR3); assay: DnaB intein splicing inhibitors, dose response, biochemical, cell-free fluorescence (AID 449749); format: functional
T6 sequence (P9WMR3 whole entry): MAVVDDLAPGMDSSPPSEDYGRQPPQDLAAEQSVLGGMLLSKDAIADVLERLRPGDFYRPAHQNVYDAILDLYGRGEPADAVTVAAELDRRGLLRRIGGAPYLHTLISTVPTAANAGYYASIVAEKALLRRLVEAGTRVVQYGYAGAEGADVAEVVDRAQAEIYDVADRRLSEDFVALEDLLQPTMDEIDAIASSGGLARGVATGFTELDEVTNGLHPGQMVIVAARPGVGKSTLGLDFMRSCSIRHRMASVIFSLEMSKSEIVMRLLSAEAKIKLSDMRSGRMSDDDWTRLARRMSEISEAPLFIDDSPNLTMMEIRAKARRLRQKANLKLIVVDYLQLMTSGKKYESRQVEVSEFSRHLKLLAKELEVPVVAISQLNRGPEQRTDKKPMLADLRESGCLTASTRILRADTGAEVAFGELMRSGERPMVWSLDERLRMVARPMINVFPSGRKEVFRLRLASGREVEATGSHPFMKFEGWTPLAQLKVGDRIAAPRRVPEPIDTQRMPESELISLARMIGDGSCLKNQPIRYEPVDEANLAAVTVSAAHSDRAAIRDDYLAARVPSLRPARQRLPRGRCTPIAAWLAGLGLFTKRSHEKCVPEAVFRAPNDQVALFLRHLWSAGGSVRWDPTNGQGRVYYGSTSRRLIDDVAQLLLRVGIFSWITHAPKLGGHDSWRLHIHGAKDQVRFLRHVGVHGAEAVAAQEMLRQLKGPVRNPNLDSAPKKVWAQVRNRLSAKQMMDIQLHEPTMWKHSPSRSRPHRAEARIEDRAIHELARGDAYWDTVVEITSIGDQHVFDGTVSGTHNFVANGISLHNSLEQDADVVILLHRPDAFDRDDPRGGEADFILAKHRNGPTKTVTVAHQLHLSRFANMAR

Protein RecA = molecular target: T7, Protein RecA (Mycobacterium tuberculosis, UniProt P9WHJ3); assay: Fluorescence Cell-Free Homogeneous Dose Retest to Identify Inhibitors of RecA-Intein Splicing Activity. [Related pubchem assays (depositor defined):AID2097, AID2223, AID489010, AID492950]; format: functional
T7 sequence (P9WHJ3 whole entry): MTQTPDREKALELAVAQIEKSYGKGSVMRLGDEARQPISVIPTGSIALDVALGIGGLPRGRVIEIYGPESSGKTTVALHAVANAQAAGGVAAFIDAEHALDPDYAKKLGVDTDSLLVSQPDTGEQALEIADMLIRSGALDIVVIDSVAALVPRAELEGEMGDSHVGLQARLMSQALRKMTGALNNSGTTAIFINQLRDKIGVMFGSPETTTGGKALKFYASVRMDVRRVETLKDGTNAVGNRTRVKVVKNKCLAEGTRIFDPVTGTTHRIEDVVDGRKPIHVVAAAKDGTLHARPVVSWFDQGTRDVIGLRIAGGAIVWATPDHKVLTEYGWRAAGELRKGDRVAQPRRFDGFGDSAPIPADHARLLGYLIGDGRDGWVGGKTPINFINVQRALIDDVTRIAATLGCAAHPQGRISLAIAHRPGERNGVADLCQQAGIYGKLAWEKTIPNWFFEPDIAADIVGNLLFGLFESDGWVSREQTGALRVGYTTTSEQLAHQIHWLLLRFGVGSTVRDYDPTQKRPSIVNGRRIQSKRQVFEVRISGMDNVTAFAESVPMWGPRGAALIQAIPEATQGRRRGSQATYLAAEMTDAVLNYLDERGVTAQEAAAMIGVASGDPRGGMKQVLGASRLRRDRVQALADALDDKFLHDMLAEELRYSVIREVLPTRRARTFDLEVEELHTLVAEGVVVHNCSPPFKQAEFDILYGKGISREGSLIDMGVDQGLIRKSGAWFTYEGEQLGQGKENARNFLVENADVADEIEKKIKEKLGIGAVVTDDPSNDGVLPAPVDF

BJ [17] = assay: cells; format: functional, cell-based; settings: Homo sapiens
[18] = HIV-1 AD8 envelope cell-cell fusion blockers – cherry-pick, dose response (AID 652062); format: functional, cell-based;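 note: luciferase signal from cell-cell fusion driven by HIV-1 clade B AD8 Env; potency is for inhibitors of fusion seen as a drop in luminescence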
INS1 = assay: INS-1E survival protection against cytokine death – cell-based, luminescence, retest, dose response (AID 449756); format: functional; settings: Rattus norvegicus;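 note: cell death triggered by IL-1 beta plus TNF-alpha plus IFN-gamma mixture; protective hits raise ATP signal compared with cytokine alone wells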
BJ [19] = assay: BJ-TERT fibroblast viability loss – cell-based, RAS-independent, luminescence, dose response (AID 1933); format: functional; settings: Homo sapiens
[20] = off-target signal loss in HeLa-CEM21 co-culture – HeLa F-luc CTL cells, cherry-picked, counter-screen for HIV-1 Env fusion inhibitor project, dose response (AID 652040); format: functional, cell-based;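 note: potency for signal decrease marking cytotoxic or nonspecific inhibition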
[21] = Intein inhibitors as potential Tuberculosis drugs, a cytotoxicity screen. [Related pubchem assays (depositor defined):AID2221, AID2223, AID434968, AID435010, AID449749, AID449750, AID489010]; format: functional
Nonstructural protein 1 = Nonstructural protein 1 (Influenza A virus, UniProt Q194T2); format: functional, Influenza A virus (A/California/07/2009(H1N1))
[22] = blockers of HIV-1 ZM109 envelope-driven cell-cell fusion – HeLa effector, CEM target cells, luciferase, cherry-pick, dose response (AID 652058); format: functional, cell-based;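 note: luciferase signal from HIV-1 Env mediated cell-cell fusion of effector and target cells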
[23] = NIH/3T3 cell viability loss – mouse embryonic fibroblasts, dry powder, set 2, cytotoxicity control, dose response (AID 493247); format: functional, cell-based; settings: Fibroblast
Trypanosoma cruzi = assay: anti-trypanosomal activity in host cells – cell-based, plate reader, dry powder, set 3, dose response (AID 493197); format: functional
[24] = molecular target: Intestinal-type alkaline phosphatase (Homo sapiens, UniProt P09923); assay: Dose Response confirmation of uHTS hits from a small molecule inhibitors of human intestinal alkaline phosphatase via a luminescent assay. [Related pubchem assays (depositor defined):AID2544, AID2574]; format: functional
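Throughout, for CC50: cells exposed to compound for 72 hours before luminescence readout.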

T2 sequence (Q8VNN2 whole entry): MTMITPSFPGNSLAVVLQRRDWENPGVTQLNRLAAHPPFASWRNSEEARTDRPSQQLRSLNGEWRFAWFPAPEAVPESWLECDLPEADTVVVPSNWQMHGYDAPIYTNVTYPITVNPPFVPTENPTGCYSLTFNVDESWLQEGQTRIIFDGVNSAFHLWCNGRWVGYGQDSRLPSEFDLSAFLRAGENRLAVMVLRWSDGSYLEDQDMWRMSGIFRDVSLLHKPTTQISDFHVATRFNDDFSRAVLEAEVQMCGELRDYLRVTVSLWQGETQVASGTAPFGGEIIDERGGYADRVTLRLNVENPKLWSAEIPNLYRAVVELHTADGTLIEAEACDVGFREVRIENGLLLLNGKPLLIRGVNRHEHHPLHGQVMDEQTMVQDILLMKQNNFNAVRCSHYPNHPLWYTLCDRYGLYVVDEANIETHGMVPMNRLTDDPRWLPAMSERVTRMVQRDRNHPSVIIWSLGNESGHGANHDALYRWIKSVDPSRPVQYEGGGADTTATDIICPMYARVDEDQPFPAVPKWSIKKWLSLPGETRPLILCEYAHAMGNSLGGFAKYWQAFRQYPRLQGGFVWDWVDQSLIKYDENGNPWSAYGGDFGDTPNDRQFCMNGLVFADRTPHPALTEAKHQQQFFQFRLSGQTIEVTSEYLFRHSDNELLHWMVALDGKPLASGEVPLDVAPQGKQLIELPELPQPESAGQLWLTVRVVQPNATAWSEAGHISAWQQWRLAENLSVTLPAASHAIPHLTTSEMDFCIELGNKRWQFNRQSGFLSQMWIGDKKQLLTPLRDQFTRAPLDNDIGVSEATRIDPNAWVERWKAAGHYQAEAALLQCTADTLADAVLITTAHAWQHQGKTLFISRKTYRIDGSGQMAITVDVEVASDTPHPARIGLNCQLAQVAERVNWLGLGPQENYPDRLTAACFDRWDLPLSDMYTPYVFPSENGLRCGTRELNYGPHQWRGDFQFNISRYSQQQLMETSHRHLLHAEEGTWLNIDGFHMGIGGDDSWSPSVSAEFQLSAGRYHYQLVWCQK
T3 sequence (P41145 whole entry): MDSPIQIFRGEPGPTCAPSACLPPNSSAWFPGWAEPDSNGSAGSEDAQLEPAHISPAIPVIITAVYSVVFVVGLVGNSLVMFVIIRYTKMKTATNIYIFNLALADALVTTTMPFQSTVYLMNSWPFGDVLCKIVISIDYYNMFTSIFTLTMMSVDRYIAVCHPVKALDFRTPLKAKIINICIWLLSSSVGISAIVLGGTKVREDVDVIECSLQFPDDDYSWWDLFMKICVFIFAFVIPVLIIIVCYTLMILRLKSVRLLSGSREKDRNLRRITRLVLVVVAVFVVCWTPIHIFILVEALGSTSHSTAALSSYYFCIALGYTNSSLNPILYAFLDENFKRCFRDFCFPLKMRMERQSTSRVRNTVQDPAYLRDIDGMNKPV
T1 sequence (Q00975 whole entry): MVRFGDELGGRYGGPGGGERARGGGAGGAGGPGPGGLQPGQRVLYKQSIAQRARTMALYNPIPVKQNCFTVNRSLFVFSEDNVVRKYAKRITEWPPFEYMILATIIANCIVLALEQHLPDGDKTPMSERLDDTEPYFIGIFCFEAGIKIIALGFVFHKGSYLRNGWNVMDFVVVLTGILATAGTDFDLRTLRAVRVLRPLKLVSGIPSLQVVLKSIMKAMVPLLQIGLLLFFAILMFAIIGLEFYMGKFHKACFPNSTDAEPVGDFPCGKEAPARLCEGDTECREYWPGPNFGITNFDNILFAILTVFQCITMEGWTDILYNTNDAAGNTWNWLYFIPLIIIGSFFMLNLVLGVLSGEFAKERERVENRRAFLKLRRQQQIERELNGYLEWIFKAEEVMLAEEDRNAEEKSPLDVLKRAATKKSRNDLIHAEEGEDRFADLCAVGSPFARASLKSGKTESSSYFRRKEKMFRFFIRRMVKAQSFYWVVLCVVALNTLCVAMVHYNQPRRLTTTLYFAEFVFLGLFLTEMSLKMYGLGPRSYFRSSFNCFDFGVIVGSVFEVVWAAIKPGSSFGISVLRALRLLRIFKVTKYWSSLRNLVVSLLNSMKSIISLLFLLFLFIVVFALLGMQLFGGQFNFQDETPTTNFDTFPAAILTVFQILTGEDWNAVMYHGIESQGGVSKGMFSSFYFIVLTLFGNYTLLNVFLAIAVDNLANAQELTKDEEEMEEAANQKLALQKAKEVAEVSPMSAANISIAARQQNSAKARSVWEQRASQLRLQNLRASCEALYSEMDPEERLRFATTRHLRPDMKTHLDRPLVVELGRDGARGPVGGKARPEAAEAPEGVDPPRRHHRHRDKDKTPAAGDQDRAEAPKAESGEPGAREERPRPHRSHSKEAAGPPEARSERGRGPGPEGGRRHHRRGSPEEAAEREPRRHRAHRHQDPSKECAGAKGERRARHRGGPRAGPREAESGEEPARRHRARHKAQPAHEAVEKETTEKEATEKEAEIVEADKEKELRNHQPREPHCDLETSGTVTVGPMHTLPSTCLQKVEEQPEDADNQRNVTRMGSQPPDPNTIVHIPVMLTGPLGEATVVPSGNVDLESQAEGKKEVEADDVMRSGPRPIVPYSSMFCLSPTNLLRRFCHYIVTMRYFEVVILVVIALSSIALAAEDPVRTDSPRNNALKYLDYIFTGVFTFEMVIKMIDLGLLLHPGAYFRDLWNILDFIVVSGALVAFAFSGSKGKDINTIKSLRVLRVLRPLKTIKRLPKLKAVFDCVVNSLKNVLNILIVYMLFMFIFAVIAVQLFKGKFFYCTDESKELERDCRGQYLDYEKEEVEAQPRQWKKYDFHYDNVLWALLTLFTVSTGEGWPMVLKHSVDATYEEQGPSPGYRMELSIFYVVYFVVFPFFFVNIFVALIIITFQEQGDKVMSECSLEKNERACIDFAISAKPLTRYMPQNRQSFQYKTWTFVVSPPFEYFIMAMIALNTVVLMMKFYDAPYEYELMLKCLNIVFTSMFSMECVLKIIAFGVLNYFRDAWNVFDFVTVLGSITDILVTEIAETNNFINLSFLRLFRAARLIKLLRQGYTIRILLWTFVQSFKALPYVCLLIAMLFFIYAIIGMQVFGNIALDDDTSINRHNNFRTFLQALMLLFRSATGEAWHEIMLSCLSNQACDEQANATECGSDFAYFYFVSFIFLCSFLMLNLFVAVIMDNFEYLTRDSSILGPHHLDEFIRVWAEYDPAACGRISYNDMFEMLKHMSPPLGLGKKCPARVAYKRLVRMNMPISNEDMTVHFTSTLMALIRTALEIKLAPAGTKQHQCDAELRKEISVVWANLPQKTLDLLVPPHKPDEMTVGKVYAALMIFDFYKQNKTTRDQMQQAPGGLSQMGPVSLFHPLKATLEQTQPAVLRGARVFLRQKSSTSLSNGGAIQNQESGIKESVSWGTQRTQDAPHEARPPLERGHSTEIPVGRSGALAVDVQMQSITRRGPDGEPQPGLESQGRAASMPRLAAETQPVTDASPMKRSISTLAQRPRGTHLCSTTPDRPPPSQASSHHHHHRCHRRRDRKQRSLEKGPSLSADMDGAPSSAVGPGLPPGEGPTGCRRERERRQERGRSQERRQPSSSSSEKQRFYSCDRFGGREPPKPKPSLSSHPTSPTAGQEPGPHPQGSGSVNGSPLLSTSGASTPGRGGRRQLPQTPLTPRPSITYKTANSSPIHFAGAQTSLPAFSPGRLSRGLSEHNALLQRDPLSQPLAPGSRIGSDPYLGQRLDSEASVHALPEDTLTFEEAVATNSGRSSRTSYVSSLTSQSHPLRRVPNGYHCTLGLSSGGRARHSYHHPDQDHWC
T1 sequence (Q02410 whole entry): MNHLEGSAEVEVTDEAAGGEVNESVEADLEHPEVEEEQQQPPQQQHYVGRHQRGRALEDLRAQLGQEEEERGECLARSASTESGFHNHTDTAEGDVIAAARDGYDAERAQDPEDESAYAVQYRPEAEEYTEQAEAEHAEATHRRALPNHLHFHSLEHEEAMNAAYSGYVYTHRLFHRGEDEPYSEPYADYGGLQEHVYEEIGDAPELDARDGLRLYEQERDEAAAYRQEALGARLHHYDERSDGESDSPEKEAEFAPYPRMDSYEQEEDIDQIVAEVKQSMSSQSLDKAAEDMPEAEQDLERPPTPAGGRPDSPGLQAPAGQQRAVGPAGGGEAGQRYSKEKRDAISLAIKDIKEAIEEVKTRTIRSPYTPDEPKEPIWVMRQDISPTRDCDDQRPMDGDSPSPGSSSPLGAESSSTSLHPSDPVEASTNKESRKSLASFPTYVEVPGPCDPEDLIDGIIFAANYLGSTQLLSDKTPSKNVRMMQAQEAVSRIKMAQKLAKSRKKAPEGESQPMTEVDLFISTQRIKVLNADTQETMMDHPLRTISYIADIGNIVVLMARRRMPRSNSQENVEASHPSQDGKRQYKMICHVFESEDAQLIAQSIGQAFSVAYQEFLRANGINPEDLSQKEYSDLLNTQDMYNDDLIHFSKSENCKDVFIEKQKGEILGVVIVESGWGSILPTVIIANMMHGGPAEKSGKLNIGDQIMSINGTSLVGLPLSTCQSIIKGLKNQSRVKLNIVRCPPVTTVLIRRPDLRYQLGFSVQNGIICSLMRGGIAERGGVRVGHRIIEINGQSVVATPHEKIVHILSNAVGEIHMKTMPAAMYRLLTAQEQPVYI
Chain of Cytochrome P450 2D6 (P10635 whole entry): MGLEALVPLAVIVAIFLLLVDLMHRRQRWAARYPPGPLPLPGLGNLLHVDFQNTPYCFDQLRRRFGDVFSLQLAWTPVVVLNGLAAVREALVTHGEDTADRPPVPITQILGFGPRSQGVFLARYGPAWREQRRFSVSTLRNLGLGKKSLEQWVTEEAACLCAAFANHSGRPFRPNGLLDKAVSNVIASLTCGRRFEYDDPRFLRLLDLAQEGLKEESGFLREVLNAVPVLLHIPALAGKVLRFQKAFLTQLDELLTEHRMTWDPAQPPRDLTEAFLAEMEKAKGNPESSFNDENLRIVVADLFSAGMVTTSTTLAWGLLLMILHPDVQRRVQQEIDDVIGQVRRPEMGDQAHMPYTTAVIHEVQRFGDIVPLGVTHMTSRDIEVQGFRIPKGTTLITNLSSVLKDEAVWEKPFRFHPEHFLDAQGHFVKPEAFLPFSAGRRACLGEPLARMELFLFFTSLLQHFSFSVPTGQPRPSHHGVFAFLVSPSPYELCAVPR

CCOc1ccc(N2C(=O)CC(Sc3nnnn3-c3ccccc3)C2=O)cc1 (configuration not stated)
AC50 [1]: 11.5 µM (active) | AC50 [2]: 12.1 µM (active) | IC50 [3]: 3.74 µM (active) | IC50 [4]: 13.4 µM (active) | IC50 (Beta-galactosidase [5]): > 66.6 µM (inactive) | AC50 [6]: 40.3 µM (active)

CCOc1cc(/C=C2\SC(=S)N(C(C(=O)O)c3ccccc3)C2=O)ccc1O (configuration not stated)
IC50 [7]: 23.2 µM (inactive) | EC50 (Beta-galactosidase [8]): 14.3 µM (active) | IC50 [9]: > 32 µM | IC50 (Aminopeptidase N): 31.8 µM (active) | IC50 (Leucine aminopeptidase): 45.5 µM (active)

CCOC(=O)c1c(-c2ccc(C)o2)csc1NC(=S)NC(=O)N(C)C
EC50 [10]: 3.01 µM (active) | AC50 (Cytochrome P450 2D6): inconclusive | IC50 (Beta-galactosidase [5]): > 66.6 µM (inactive)

C(=N\Nc1nncc2ccccc12)/c1ccccn1
EC50 (BJ [11]): 4.42 µM (active) | EC50 [12]: 5.08 µM (inconclusive) | AC50 [13]: 0.478 µM (active) | EC50 (BJ [14]): 3.77 µM (active) | AC50 [15]: 4.9 µM (active) | AC50 [16]: 3.19 µM (active) | EC50 (Protein RecA): 1.29 µM (active) | EC50 (BJ [17]): 10.8 µM (inconclusive) | AC50 [18]: 4.65 µM (active) | AC50 (INS1): 1.58 µM (active) | EC50 (BJ [19]): 8.71 µM (inconclusive) | AC50 [20]: 4.38 µM (active) | CC50 [21]: 6.58 µM (active) | IC50 (Nonstructural protein 1): 4.45 µM (active) | AC50 [22]: < 0.26 µM (active)

O=C(N/N=C/c1ccc([N+](=O)[O-])o1)C1CCCCC1
AC50 [23]: 21.5 µM (active) | AC50 (Trypanosoma cruzi): 0.501 µM (active)

CC1Cn2c(nnc2C23CC4CC(CC(C4)C2)C3)S1 (configuration not stated)
IC50 [24]: > 100 µM (inactive)
